ChEMBL document CHEMBL4699592, “Nature-Inspired (di)Azine-Bridged Bisindole Alkaloids with Potent Antibacterial In Vitro and In Vivo Efficacy against Methicillin-Resistant Staphylococcus aureus” (J Med Chem, 2020)
In brackets after ≈: the same amount, converted by molar mass. Activity calls are given as the source filed them. The calls are words filed in the database; no cut-off is given here.

Experiments:
[1] = Selectivity index, ratio of IC50 for cytotoxicity against human THP-1 cells to MIC90 for antibacterial activity against […] Staphylococcus aureus ATCC 700699; type: toxicity, cell-based; details: read-out: Selectivity Index
[2] = system: MRC5; assay: Cytotoxicity against human MRC5 cells assessed as reduction in cell viability at >=12.5 uM measured after 48 hrs by resazurin dye based fluorescence assay; details: mrc5, 48 h
[3] = system: THP-1; assay: Cytotoxicity against human THP-1 cells assessed as reduction in cell viability at >=12.5 uM measured after 48 hrs by resazurin dye based fluorescence assay; details: thp-1, 48 h
[4] = system: Enterococcus faecium; assay: Antibacterial activity against vancomycin-resistant Enterococcus faecium ATCC 35667 at 0.78 to 100 uM after 24 hrs by broth microdilution method; type: functional, organism-based; details: dose microM 0.78-100, time 24.0 hrs
[5] = system: Enterococcus faecalis; assay: Antibacterial activity against Enterococcus faecalis ATCC 29212 at 0.78 to 100 uM after 24 hrs by broth microdilution method; type: functional, organism-based; details: dose microM 0.78-100, time 24.0 hrs
[6] = system: Acinetobacter baumannii; assay: Antibacterial activity against Acinetobacter baumannii ATCC BAA-1605 at 0.78 to 100 uM after 24 hrs by broth microdilution method; type: functional, organism-based; details: dose microM 0.78-100, time 24.0 hrs
[7] = system: Staphylococcus aureus; assay: Antibacterial activity against methicillin susceptible Staphylococcus aureus ATCC 25923 at 0.78 to 100 uM after 24 hrs by broth microdilution method; type: functional, organism-based; details: dose microM 0.78-100, time 24.0 hrs
[8] = system: Staphylococcus aureus; assay: Antibacterial activity against […] Staphylococcus aureus ATCC 700699 after 24 hrs by broth microdilution method; type: functional
[9] = Solubility of compound in pH 7.7 PBS buffer; type: physicochemical
[10] = Selectivity index, ratio of IC50 for cytotoxicity against human MRC5 cells to MIC90 for antibacterial activity against […] Staphylococcus aureus ATCC 700699; type: toxicity, cell-based; details: read-out: Selectivity Index
[11] = system: HepG2; assay: Cytotoxicity against human HepG2 cells assessed as reduction in cell viability at >12.5 uM measured after 48 hrs by resazurin dye based fluorescence assay; details: hepg2, 48 h
[12] = system: Erythrocyte; assay: Hemolytic activity against sheep erythrocytes up to 100 uM measured after 1 hr; type: ADME, cell-based, Ovis aries
[13] = system: Pseudomonas aeruginosa; assay: Antibacterial activity against Pseudomonas aeruginosa ATCC 27853 measured after 24 hrs by broth microdilution method; type: functional
[14] = system: Acinetobacter baumannii; assay: Antibacterial activity against Acinetobacter baumannii ATCC BAA-1605 after 24 hrs by broth microdilution method; type: functional
[15] = system: Escherichia coli; assay: Antimicrobial activity against Escherichia coli ATCC BAA 2469 after 24 hrs by broth microdilution assay; type: functional
[16] = system: Klebsiella pneumoniae; assay: Synergistic antibacterial activity against Klebsiella pneumoniae ATCC 700603 assessed as FIC after 24 hrs in presence of colistin by checkerboard assay relative to test compound MIC; type: functional
[17] = system: Pseudomonas aeruginosa; assay: Synergistic antibacterial activity against Pseudomonas aeruginosa ATCC 27853 assessed as FIC after 24 hrs in presence of colistin by checkerboard assay relative to test compound MIC; type: functional
[18] = system: Escherichia coli; assay: Synergistic antimicrobial activity against Escherichia coli ATCC BAA 2469 assessed as FIC after 24 hrs in presence of colistin by checkerboard assay relative to test compound MIC; type: functional
[19] = system: Klebsiella pneumoniae; assay: Synergistic antibacterial activity against Klebsiella pneumoniae ATCC 700603 assessed as FIC after 24 hrs in presence of colistin by checkerboard assay relative to colistin; type: functional
[20] = system: Pseudomonas aeruginosa; assay: Synergistic antibacterial activity against Pseudomonas aeruginosa ATCC 27853 assessed as FIC after 24 hrs in presence of colistin by checkerboard assay relative to colistin; type: functional
[21] = system: Acinetobacter baumannii; assay: Synergistic antibacterial activity against Acinetobacter baumannii ATCC BAA-1605 assessed as FIC after 24 hrs in presence of colistin by checkerboard assay relative to colistin; type: functional
[22] = system: Escherichia coli; assay: Synergistic antimicrobial activity against Escherichia coli ATCC BAA 2469 assessed as FIC after 24 hrs in presence of colistin by checkerboard assay relative to colistin; type: functional
[23] = system: Klebsiella pneumoniae; assay: Synergistic antibacterial activity against Klebsiella pneumoniae ATCC 700603 assessed as FICI after 24 hrs in presence of colistin by checkerboard assay; type: functional
[24] = system: Acinetobacter baumannii; assay: Synergistic antibacterial activity against Acinetobacter baumannii ATCC BAA-1605 assessed as FICI after 24 hrs in presence of colistin by checkerboard assay; type: functional
[25] = system: Escherichia coli; assay: Synergistic antimicrobial activity against Escherichia coli ATCC BAA 2469 assessed as FICI after 24 hrs in presence of colistin by checkerboard assay; type: functional
[26] = system: Staphylococcus aureus; assay: Bactericidal activity against […] Staphylococcus aureus ATCC 700699 assessed as colony forming units at 5 fold MIC measured after 24 hrs by time kill assay; type: functional
[27] = system: Staphylococcus aureus; assay: Antibacterial activity against vancomycin-sensitive Staphylococcus aureus T144 infected in Balb/c mouse assessed as increase in wound healing at 5 mg/kg applied topically measured daily for 12 days by microscopic analysis; type: functional, organism-based; details: time 12.0 day
[28] = system: Staphylococcus aureus; assay: Antibacterial activity against vancomycin-sensitive Staphylococcus aureus T144 infected in Balb/c mouse peritonitis-sepsis model assessed as increase in survival at 5 mg/kg, ip measured for 48 hrs; type: functional, organism-based
[29] = system: Staphylococcus aureus; assay: Antibacterial activity against methicillin-resistant Staphylococcus aureus USA300 LAC at 0.15 to 25 uM incubated for 24 hrs under low glucose medium by resazurin dye based fluorescence assay; type: functional, organism-based; details: dose microM 0.15-25, time 24.0 hrs
[30] = system: Staphylococcus aureus; assay: Antibacterial activity against methicillin-resistant Staphylococcus aureus USA300 LAC at 0.15 to 25 uM incubated for 24 hrs under low pyruvate containing medium by resazurin dye based fluorescence assay; type: functional, organism-based; details: dose microM 0.15-25, time 24.0 hrs
[31] = system: Staphylococcus aureus; assay: Antibacterial activity against methicillin-resistant pyruvate kinase deficient Staphylococcus aureus USA300 LAC at 0.15 to 25 uM incubated for 24 hrs under low pyruvate containing medium by resazurin dye based fluorescence assay; type: functional, organism-based; details: dose microM 0.15-25, time 24.0 hrs
[32] = system: Staphylococcus aureus; assay: Inhibition of Staphylococcus aureus ATCC 700699 N-terminal His6-tagged pyruvate kinase expressed in Escherichia coli NiCo21(DE3) at 12.5 uM using phosphoenolpyruvate as substrate measured for 5 mins by LDH-coupled assay
[33] = target: Pyruvate kinase PKM (Oryctolagus cuniculus) (UniProt P11974); assay: Inhibition of rabbit muscle pyruvate kinase up to 12.5 uM using phosphoenolpyruvate as substrate measured for 5 mins by LDH-coupled assay; details: dose microM <=12.5, time 5.0 min
[34] = system: Cell membrane; assay: Induction of cell membrane permeabilization in methicillin sensitive Staphylococcus aureus ATCC 29213 at 5 fold MIC measured after 30 mins by propidium iodide/DAPI staining based fluorescence microscopic analysis; type: subcellular
[35] = system: Cell membrane; assay: Induction of cell membrane permeabilization in methicillin resistant Staphylococcus aureus ATCC 700699 at 5 fold MIC measured at 5 mins interval for 2 hrs by propidium iodide staining based fluorescence assay
[36] = system: Cell membrane; assay: Induction of cell membrane permeabilization in GFP-expressing Staphylococcus aureus ATCC 700699 assessed as increase in cellular ATP leakage at 5 fold MIC measured after 0.5 hrs by Bactiter-glo assay; type: subcellular
[37] = system: Cell membrane; assay: Induction of cell membrane permeabilization in GFP-expressing Staphylococcus aureus ATCC 700699 assessed as increase in GFP efflux at 5 fold MIC measured after 6 hrs by fluorescence assay
[38] = system: Staphylococcus aureus; assay: Induction of cell lysis in Staphylococcus aureus ATCC 700699 assessed as decrease in turbidity at 8 fold MIC measured after 2 hrs by photometric method; type: functional, organism-based

Sequence of Pyruvate kinase PKM (Oryctolagus cuniculus) (P11974 whole entry): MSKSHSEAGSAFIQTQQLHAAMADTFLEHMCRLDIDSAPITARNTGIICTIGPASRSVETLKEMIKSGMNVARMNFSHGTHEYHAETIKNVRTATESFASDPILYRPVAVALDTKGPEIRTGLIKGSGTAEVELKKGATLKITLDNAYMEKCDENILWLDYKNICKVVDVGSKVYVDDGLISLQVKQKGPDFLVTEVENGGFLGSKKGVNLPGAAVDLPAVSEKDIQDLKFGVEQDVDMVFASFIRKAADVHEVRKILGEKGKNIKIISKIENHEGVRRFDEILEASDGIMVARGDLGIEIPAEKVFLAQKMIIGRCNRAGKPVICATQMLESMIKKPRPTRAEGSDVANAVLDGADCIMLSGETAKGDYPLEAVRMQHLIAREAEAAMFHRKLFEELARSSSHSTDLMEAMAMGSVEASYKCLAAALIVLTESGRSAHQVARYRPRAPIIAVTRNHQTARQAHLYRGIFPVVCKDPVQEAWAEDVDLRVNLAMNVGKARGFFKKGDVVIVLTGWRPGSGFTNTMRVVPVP

In the case of `Clc1ccc2[nH]cc(-c3cccc(-c4c[nH]c5ccc(Cl)cc45)n3)c2c1`, the selectivity ratio [1] is reported as 32, the Activity [2] is reported as “Toxic” and the Activity [3] is reported as “Toxic”. For the same compound, the Activity [4] was “Active”, the Activity [5] was “Active” and the Activity [6] was “Active”. For the same compound, the Activity [7] was “Active”, the MIC90 [8] was 0.2 µM (≈ 0.0757 µg/mL) and the solubility [9] was “Insoluble”. The selectivity ratio [10] was 32, the Activity [11] was “Toxic” and the Activity [12] was “Non-Toxic”. It also gave an MIC [13] of over 100 µM, an MIC [14] of over 100 µM and an MIC [15] of over 100 µM. The FIC [16] was “<=0.125”, the FIC [17] was “<=0.0625” and the FIC [18] was “<=0.0313”. For the same compound, the FIC [19] was 0.125, the FIC [20] was 0.5 and the FIC [21] was 0.25. The FIC [22] was 0.064, the “fractional inhibitory concentration index (FICI)” value [23] was “<=0.25” and the “fractional inhibitory concentration index (FICI)” value [24] was “<=0.3125”. For the same compound, the “fractional inhibitory concentration index (FICI)” value [25] was “<=0.0953”, the Activity [26] was under 10 CFU/ml and the Activity [27] was “Active”. The Activity [28] was “Active”, the Activity [29] was “Active” and the Activity [30] was “Active”. The Activity [31] was “Active”, the inhibition [32] was “inactive” and the inhibition [33] was “inactive”. The Activity [34] was “Active”, the Activity [35] was “Active” and the Activity [36] was “Active”. For the same compound, the Activity [37] was “Active” and the Activity [38] was “inactive”.
